Patent US6218393A, “Anthranilic acid derivatives as multi drug resistance modulators” (priority 1997, dated 2001)
pIC50: −log10 of the molar value.

Columns and labels:
AR 1.0 cells [1] = assay: Drug accumulation assay: daunorubicin accumulation in AR 1.0 cells; type: cell-based; conditions: Mus musculus, 100% = accumulation with verapamil 100 μM, 1 hr, 37° C.
Description: (§1) The EMT6 mouse mammary carcinoma cell line and the MDR resistant subline AR 1.0 were cultured in RPMI 1640 medium containing 10% foetal calf serum and 2 mM glutamine at 37° C. in 5% CO2. Cells were passaged between 1 in 200 and 1 in 2000 in the case of the parental cell line and between 1 in 20 and 1 in 200 in the case of the MDR resistant subline, after trypsinisation (0.25% trypsin, 0.2 gl^-1, EDTA).
AR 1.0 cells were seeded 48 hours prior to assay into 96 well opaque culture plates (Canberra Packard).

AR 1.0 cells [2] = assay: Potentiation index with doxorubicin titration; type: cell-based, mouse; conditions: for Potentiation Index at RMA concentration 30 nM: Table C1, RMA 30 nM; for Potentiation Index at RMA concentration 50 nM: Table C1, RMA 50 nM; for Potentiation Index at RMA concentration 100 nM: Table C1, RMA 100 nM; for Potentiation Index at RMA concentration 10 nM: Table C1, RMA 10 nM
Description: as §1, with “EDTA). […]” for “EDTA).”
(b) Cells were cultured for four days with a titration of doxorubicin (0.263 nM-17.24 μM) in the presence of a fixed concentration of each compound. Proliferation was quantified as described by Skehen et al, loc cit. The IC50 (concentration required to reduce proliferation to 50% of the untreated controls) for doxorubicin alone and with each compound were derived and used to calculate the potentiation index (PI): [formula]

Compound	pIC50 (AR 1.0 cells [1])	Potentiation Index at RMA concentration 30 nM (AR 1.0 cells [2])	Potentiation Index at RMA concentration 50 nM (AR 1.0 cells [2])	Potentiation Index at RMA concentration 100 nM (AR 1.0 cells [2])	Potentiation Index at RMA concentration 10 nM (AR 1.0 cells [2])	Potentiation Index at RMA concentration 20 nM (AR 1.0 cells [2]; Table C1, RMA 20 nM)	Potentiation Index at RMA concentration 300 nM (AR 1.0 cells [2]; Table C2, RMA 300 nM)	Potentiation Index at RMA concentration 500 nM (AR 1.0 cells [2]; Table C2, RMA 500 nM)
CCCCOc1ccc(CN(C)CCc2ccc(NC(=O)c3ccccc3NC(=O)c3cnc4ccccc4c3)cc2)cc1OC [compound 9642, Quinoline-3-carboxylic acid [2-(4-{2-[(4-butoxy-3-methoxy-benzyl)-methyl-amino]-ethyl}-phenylcarbamoyl)-phenyl]-amide]	6.47	1.2	2.5	14	1.0	–	–	–
COc1cc2c(cc1OC)CN(CCc1ccc(NC(=O)c3cscc3NC(=O)c3ccc(C)nc3)cc1)CC2 [compound 9617, N-(4-{4-[2-(6,7-Dimethoxy-3,4-dihydro-1H isoquinolin-2-yl)-ethyl]-phenylcarbamoyl}-thiophen-3-yl)-6-methyl-nicotinamide]	6.69	4	15	81	1.5	–	–	–
COc1cc(CN(C)CCc2ccc(NC(=O)c3ccccc3NC(=O)c3cnc4ccccc4c3)cc2)cc(OC)c1OC [compound 9640, Quinoline-3-carboxylic acid [2-(4-{2-[methyl-(3,4,5-trimethoxy-benzyl)-amino]-ethyl}-phenylcarbamoyl)-phenyl]-amide]	6.71	2.5	4.6	23.8	1	–	–	–
COc1ccc(CN(C)CCc2ccc(NC(=O)c3ccc(Cl)cc3NC(=O)c3cnc4ccccc4c3)cc2)cc1OC [compound 9663, Quinoline-3-carboxylic acid [5-chloro-2-(4-{2-[(3-4-dimethoxy-benzyl)-methyl-amino]-ethyl}-phenylcarbamoyl)-phenyl]-amide]	6.76	80	74	82	50	–	–	–
COc1cc(CN(C)CCc2ccc(NC(=O)c3ccccc3NC(=O)c3cnc4ccccc4c3)cc2)ccc1O [compound 9649, Quinoline-3-carboxylic acid [2-(4-{2-[(4-hydroxy-3-methoxy-benzyl)-methyl-amino]-ethyl}phenylcarbamoyl)-phenyl]-amide]	6.73	46	60	66	53	–	–	–
COc1cc2c(cc1OC)CN(CCc1ccc(NC(=O)c3ccccc3NC(=O)c3cnc4ccccc4c3)c(C)c1)CC2 [compound 9650, Quinoline-3-carboxylic acid (2-{4-[2-(6,7-dimethoxy-3,4-dihydro-1H-isoquinolin-2-yl)-ethyl]-2-methyl-phenylcarbamoyl}-phenyl)-amide]	7.21	3	14	33	3	–	–	–
CCCCN(CCc1ccc(NC(=O)c2ccccc2NC(=O)c2cnc3ccccc3c2)cc1)Cc1ccc(OC)c(OC)c1 [compound 9641, Quinoline-3-carboxylic acid [2-(4-{2-[butyl-(3,4-dimethoxy-benzyl)-amino]-ethyl}-phenylcarbamoyl)-phenyl]-amide]	8.72	17	46	162	1.5	–	–	–
COc1cc2c(cc1OC)CN(CC(O)COc1ccc(NC(=O)c3ccccc3NC(=O)c3cnc4ccccc4c3)cc1)CC2 (centres unmarked) [compound 9648, Quinoline-3-carboxylic acid (2-{4-[3-(6,7-dimethoxy-3,4-dihydro-1H-isoquinolin-2-yl)-2-hydroxy-propoxy]-phenylcarbamoyl}-phenyl)-amide]	7.42	34	–	–	16	–	–	–
COc1cc2c(cc1OC)CN(CCc1ccc(NC(=O)c3cccnc3NC(=O)c3cnc4ccccc4n3)cc1)CC2 [compound 9600, Quinoxaline-2-carboxylic acid (3-{4-[2-(6,7-dimethoxy-3,4-dihydro-1H-isoquinolin-2-yl)-ethyl]-phenylcarbamoyl}-pyridin-2-yl)-amide]	6.70	–	1.98	2.55	–	–	–	–

Continued, in another order:

pIC50 (AR 1.0 cells [1])	Compound	Potentiation Index at RMA concentration 30 nM (AR 1.0 cells [2])	Potentiation Index at RMA concentration 50 nM (AR 1.0 cells [2])	Potentiation Index at RMA concentration 100 nM (AR 1.0 cells [2])	Potentiation Index at RMA concentration 10 nM (AR 1.0 cells [2])	Potentiation Index at RMA concentration 20 nM (AR 1.0 cells [2]; Table C1, RMA 20 nM)	Potentiation Index at RMA concentration 300 nM (AR 1.0 cells [2]; Table C2, RMA 300 nM)	Potentiation Index at RMA concentration 500 nM (AR 1.0 cells [2]; Table C2, RMA 500 nM)
7.19	COc1ccc(CN(C)Cc2ccc(NC(=O)c3ccccc3NC(=O)c3cnc4ccccc4c3)cc2)cc1OC(C)C [compound 9652, Quinoline-3-carboxylic acid [2-(4-{[(3-isopropoxy-4-methoxy-benzyl)-methyl-amino]-methyl}-phenylcarbamoyl)-phenyl]-amide]	1.2	1.8	7.6	–	–	–	–
6.56	O=C(Nc1ccccc1C(=O)Nc1ccc(CCN2Cc3ccccc3C2)cc1)c1cnc2ccccc2c1 [compound 9626, Quinoline-3-carboxylic acid (2-{4-[2-(1,3-dihydro-isoindol-2-yl)-ethyl]-phenylcarbamoyl}-phenyl)-amide]	4	8	27	1.2	–	–	–
6.34	COc1cc2c(cc1OC)CN(CCSc1ccc(NC(=O)c3ccccc3NC(=O)c3cnc4ccccc4c3)cc1)CC2 [compound 9621, Quinoline-3-carboxylic acid (2-{4-[2-(6,7-dimethoxy-3 ,4-dihydro-1H-isoquinolin-2-yl)-ethylsulfanyl]-phenylcarbamoyl}-phenyl)-amide]	1.6	4.4	25	1.0	1.3	–	–
6.95	COc1cc2c(cc1OC)CN(CCc1ccc(NC(=O)c3cscc3NC(=O)c3cnc4ccccc4c3)cc1)CC2 [compound 9616, Quinoline-3-carboxylic acid (4-{4-[2-(6,7-dimethoxy-3,4-dihydro-1H-isoquinolin-2-yl)-ethyl]-phenylcarbamoyl}-thiophen-3-yl)-amide]	142	143	185	13	–	–	–
6.40	COc1cc2c(cc1OC)CN(CCNC(=O)c1ccccc1NC(=O)c1ccc(-c3ccccc3)cc1)CC2 [compound 9294, Biphenyl-4-carboxylic acid {2-[2-(6,7-dimethoxy-3,4-dihydro-1H-isoquinolin-2-yl)-ethylcarbamoyl]-phenyl}-amide]	–	–	–	–	–	18	71
6.17	COc1cc2c(cc1OC)CN(CCc1ccc(NC(=O)c3ccccc3NC(=O)c3csc(C)n3)cc1)CC2 [compound 9635, 2-Methyl-thiazole-4-carboxylic acid (2-{4-[2-(6,7-dimethoxy-3,4-dihydro-1H-isoquinolin-2-yl)-ethyl]-phenylcarbamoyl}-phenyl)-amide]	1.3	2	7	–	–	–	–
6.46	COc1cc2c(cc1OC)C(C)N(CCc1ccc(NC(=O)c3ccccc3NC(=O)c3cnc4ccccc4c3)cc1)CC2 (centres unmarked) [compound 9625, Quinoline-3-carboxylic acid (2-{4-[2-(6,7-dimethoxy-1-methyl-3,4-dihydro-1H-isoquinolin 2-yl)-ethyl]-phenylcarbamoyl}-phenyl)-amide]	4	7	60	1	–	–	–
6.23	COc1cc2c(cc1OC)CN(CCc1cccc(NC(=O)c3ccccc3NC(=O)c3cnc4ccccc4c3)c1)CC2 [compound 9633, Quinoline-3-carboxylic acid (2-{3-[2-(6,7-dimethoxy-3,4-dihydro-1H-isoquinolin-2-yl)-ethyl]-phenylcarbamoyl}-phenyl)-amide]	1.3	3.4	13.7	1.0	–	–	–
6.53	COc1cc(CN(C)CCc2ccc(NC(=O)c3ccccc3NC(=O)c3cnc4ccccc4c3)cc2)ccc1OC(C)C [compound 9646, Quinoline-3-carboxylic acid [2-(4-{2-[(4-isopropoxy-3-methoxy-benzyl)-methyl-amino]-ethyl}-phenylcarbamoyl)-phenyl]-amide]	1.1	1.3	4.8	1.0	–	–	–
